According to patent US20080260637A1, “Methods of Detecting Prostate Cancer” (priority 2004, published 2008):

Assays:
mitochondria = details: energy dependent manner; cited from earlier work
[1] = tested on: prostate cancer tumor areas; test: SPECT imaging of excised intact prostate after intravenous Tc^99Sestamibi, compared with whole mount histopathology; assay type: in vivo, human; details: 25mCi i.v. 1-2 hours prior to prostate excision; ex-vivo SPECT of intact prostate; two patients shown
Experimental: Twelve prostate cancer patients were intravenously administered with 25mCi Tc^99Sestamibi 1-2 hours prior to prostate excision. Intact prostates were excised using surgical procedures (Radical Retro pubic Prostatectomy, Radical Cystectomy or Open Prostatectomy)—illustrated in FIG. 3. The intact prostate was imaged by SPECT using a standard dual head gamma camera (millennium, GE) 6° angular step and 40 sec/step. Imaging results were reviewed using both transaxial (FIGS. 4I-N and FIGS. 5C-D) and coronal views (FIGS. 4O-T and FIG. 5E). The nuclear images were processed automatically. The designated green lines seen in FIGS. 4I-M and 4O-R and 5C and 5E were produced following an automatic search for maximal intensity voxel. Contours were determined at 90% maximal intensity. Following imaging, prostate tissue was sliced transversely from bladder neck (base) to apex. Whole mount histopathology was carried out as described in Example 1.

## [C-]#[N+]CC(C)(C)OC.[C-]#[N+]CC(C)(C)OC.[C-]#[N+]CC(C)(C)OC.[C-]#[N+]CC(C)(C)OC.[C-]#[N+]CC(C)(C)OC.[C-]#[N+]CC(C)(C)OC.[Tc] [Tc^99Sestamibi]
mitochondria
  fraction of agent taken up by mitochondria: more than 90%
[1]
  identification of tumor areas by SPECT scanning: identified tumor areas as corroborated by whole mount histopathology
